Experimental data from paper PMC2099433, “The binding site for neohesperidin dihydrochalcone at the human sweet taste receptor” (BMC Structural Biology, 2007).
Changes are numbered by the printed parent chain. Where a SMILES comes first, the peptide text is derived from it.

Key:
[1] = molecular target: T1, hTAS1R2 + hTAS1R3 Q637E^3.29 (Homo sapiens, UniProt Q7RTX0+Q8TE23, Q637E); test: Calcium response (FLIPR), hTAS1R3 mutant coexpressed with hTAS1R2; type: cell-based; details: variant Q637E^3.29; for Emax: read-out: maximal signal (% of wt)
T1 construct: expressed in transfected cells; host or cells: HEK293T cells stably expressing G16Gust44
T1 sequence (Q8TE23 20-839): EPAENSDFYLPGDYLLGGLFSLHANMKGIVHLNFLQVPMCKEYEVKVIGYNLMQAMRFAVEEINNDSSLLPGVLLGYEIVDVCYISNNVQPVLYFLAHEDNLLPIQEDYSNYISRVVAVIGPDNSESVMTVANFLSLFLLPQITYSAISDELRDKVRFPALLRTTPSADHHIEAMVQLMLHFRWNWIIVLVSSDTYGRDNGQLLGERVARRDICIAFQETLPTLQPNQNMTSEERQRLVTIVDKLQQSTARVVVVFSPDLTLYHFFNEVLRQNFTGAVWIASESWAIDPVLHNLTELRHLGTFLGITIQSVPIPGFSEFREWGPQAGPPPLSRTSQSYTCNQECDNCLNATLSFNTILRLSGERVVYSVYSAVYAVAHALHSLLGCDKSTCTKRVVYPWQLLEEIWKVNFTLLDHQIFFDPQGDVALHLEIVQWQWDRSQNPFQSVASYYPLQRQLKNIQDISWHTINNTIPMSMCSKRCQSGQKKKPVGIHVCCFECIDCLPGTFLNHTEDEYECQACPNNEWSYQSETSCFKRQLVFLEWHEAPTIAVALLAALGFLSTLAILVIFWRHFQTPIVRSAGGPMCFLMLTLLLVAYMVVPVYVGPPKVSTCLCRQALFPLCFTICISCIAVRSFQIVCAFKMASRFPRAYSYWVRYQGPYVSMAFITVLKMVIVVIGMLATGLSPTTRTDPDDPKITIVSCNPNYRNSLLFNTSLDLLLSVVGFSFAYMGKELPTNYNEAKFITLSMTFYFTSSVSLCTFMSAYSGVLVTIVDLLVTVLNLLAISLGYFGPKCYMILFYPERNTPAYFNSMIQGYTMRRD
T1 sequence (Q7RTX0 21-852 Q637E): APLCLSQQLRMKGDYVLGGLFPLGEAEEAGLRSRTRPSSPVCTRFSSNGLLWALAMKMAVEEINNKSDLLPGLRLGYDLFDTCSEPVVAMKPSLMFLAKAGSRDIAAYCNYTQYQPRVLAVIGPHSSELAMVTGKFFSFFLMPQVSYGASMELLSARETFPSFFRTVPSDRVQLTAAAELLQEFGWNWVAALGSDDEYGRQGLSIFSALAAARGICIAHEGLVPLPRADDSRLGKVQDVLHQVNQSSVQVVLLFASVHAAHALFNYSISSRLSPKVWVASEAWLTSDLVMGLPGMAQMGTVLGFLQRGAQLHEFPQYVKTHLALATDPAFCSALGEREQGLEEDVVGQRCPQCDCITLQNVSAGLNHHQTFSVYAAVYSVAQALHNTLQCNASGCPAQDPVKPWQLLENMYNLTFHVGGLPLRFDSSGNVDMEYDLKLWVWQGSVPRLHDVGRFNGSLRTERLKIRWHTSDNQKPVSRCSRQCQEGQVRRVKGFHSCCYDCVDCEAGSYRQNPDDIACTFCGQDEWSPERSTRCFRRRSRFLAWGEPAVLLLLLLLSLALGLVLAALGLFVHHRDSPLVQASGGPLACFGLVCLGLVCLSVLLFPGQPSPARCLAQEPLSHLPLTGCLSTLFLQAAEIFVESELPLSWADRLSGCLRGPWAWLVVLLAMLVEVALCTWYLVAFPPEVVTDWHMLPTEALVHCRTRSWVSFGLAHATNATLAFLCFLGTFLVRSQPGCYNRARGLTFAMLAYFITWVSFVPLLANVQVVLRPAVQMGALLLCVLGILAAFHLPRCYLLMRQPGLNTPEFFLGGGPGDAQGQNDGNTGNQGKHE
How it was run: (§1)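 HEK293T/G16Gust44, transient transfection of HSV-tagged TAS1R2 + TAS1R3 mutants; Fluo4-AM loading 1 h at 24 h; sweet tastants in C1 solution; FLIPR Ca2+ read; ΔF/F, mock-subtracted; ≥3 independent expts in duplicate.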

[2] = molecular target: T2, hTAS1R2 + hTAS1R3 L782A^6.55 (Homo sapiens, UniProt Q7RTX0+Q8TE23, L782A); test: as above; type: cell-based; details: variant L782A^6.55; for EC50: (>) EC50 not calculable because saturation is not reached; for Emax: read-out: maximal signal (% of wt)
T2 construct: expressed in transfected cells; host or cells: HEK293T cells stably expressing G16Gust44
T2 sequence (Q8TE23 20-839): T1 sequence (Q8TE23 20-839)
T2 sequence (Q7RTX0 21-852 L782A): T1 sequence (Q7RTX0 21-852 Q637E) with E617Q, L762A
How it was run: as §1

| Structure (SMILES) | EC50 [1] [µM] | Emax [1] [%] | EC50 [2] [µM] | Emax [2] [%] |
| --- | --- | --- | --- | --- |
| COc1ccc(CCC(=O)c2c(O)cc(O[C@@H]3O[C@H](CO)[C@@H](O)[C@H](O)[C@H]3O[C@@H]3O[C@@H](C)[C@H](O)[C@@H](O)[C@H]3O)cc2O)cc1O [NHDC, neohesperidin dihydrochalcone] | 1500 ± 400 | 51 ± 13 | > 3000 | 50 ± 11 |
| COC(=O)[C@H](Cc1ccccc1)NC(=O)[C@@H](N)CC(=O)O [aspartame] (HELM PEPTIDE1{D.F.[CO[*:1]]}$$$$V2.0) | 1700 ± 200 | 51 ± 10 | 1700 ± 300 | 95 ± 90 |
